From publication PMC8704606, “The Artemiside-Artemisox-Artemisone-M1 Tetrad: Efficacies against Blood Stage P. falciparum Parasites, DMPK Properties, and the Case for Artemiside” (Pharmaceutics, 2021)
Where two headings read alike, the source gives them in different places.

Tests used:
[1] = Pharmacokinetics and metabolism after iv and po administration; type: in vivo; details: for half-life: mean ± SD, read-out: t½ (converted); for MRT last: read-out: MRT0-last; for AUC(0-t): up to 7 h
Description: The plasma concentration-time profiles of the parent compounds and metabolites after administration iv and po to male C57/BL6 mice are presented in Figure 2, Figure 3 and Figure 4. Artemiside was quantifiable up to 24 h in all mice dosed iv and up to 7 h po (lower limit of quantitation LLOQ = 1.6 ng/mL or 0.004 μM) (Figure 2). […] For both artemiside and artemisox, the metabolite artemisone was quantifiable up to 3 h in both the po and iv groups (Figure 2 and Figure 3). Thereby it is confirmed that artemiside is rapidly converted via artemisox into artemisone. Artemisone itself was quantifiable up to three hours post dose (Figure 4). The mean circulating concentrations for the compounds and their metabolites are presented in Table S3a–f in the Supplementary Material 1. The metabolite M1 was also detected upon administration of artemiside, artemisox, and artemisone, but it was not quantified here; chromatograms indicating the presence of M1 are illustrated in Figure S3a–c in the Supplementary Material 1. In addition, the plasma concentration-time curves for artemiside and its metabolites artemisone and M1 following iv and po dosing in the same murine model are presented and discussed in detail elsewhere (cf. Figure 4 in reference).
All work was conducted with prior approval of the animal ethics committee of the University of Cape Town in accordance with the South African National Standards for the Care and Use of Animals for Scientific Purposes and guidelines from the South African Department of Health. The requirements and methods for the pharmacokinetics in vivo involving po and iv drug administration, sample extraction, analyses of samples by LC-MS/MS, and data analyses are described elsewhere. For the animal experiments and formulations, the compounds were dissolved in a 10:60:30 mixture of N,N-dimethylacetamide-polypropylene glycol-polyethylene glycol for intravenous dosing (iv) at 5 mg/kg. For the oral dose (po), compounds were individually dosed as a suspension in 0.5% (w/v) hydroxypropylmethylcellulose in water with 0.2% Tween80 at 50 mg/kg to male C57/BL6 mice (n = 3 for each group). For PK sampling, blood samples were collected at predetermined times (0.08, 0.25, 0.5, 1, 3, 5, 7, and 24 h) for both po and iv dosing via tail bleeding into heparinized tubes, centrifuged, and the plasma samples were stored at −80 °C until extraction. For preparation of samples, the frozen plasma samples were thawed and 15 μL was extracted by liquid–liquid extraction using a universal buffer (pH8) containing 10 ng/mL of the internal standard and ethyl acetate, and the extract was vortexed and centrifuged. Calibration standards and quality controls were extracted following the same procedure. Supernatants were dried down, reconstituted, and injected onto the column for LC-MS/MS analysis using an AB SCIEX 5500 QTRAP instrument coupled to an Agilent 1260 HPLC detection system as previously described.

[2] = Cytotoxicity (LDH assay) against HepG2 cells; type: cell-based; details: human, HepG2 cells (hepatocellular carcinoma)
Description: Cytotoxicity against mammalian hepatocellular carcinoma cells (HepG2 cells) was determined using the lactate dehydrogenase assay (LDH, Biovision Inc., Milpitas, CA, USA). […] Compound working solutions were prepared from 10 mM stock solutions (100% DMSO) in complete DMEM to a final DMSO (Sigma-Aldrich) conc. of <0.1% (vol/vol). […] Data analysis was performed using GraphPad Prism (version 6) software.

[3] = male, C57/BL6, mouse, plasma, iv 5 mg/kg, parent drug
[4] = male, C57/BL6, mouse, plasma, po 50 mg/kg, parent drug

SMILES: C[C@H]1[C@H](N2CC[S+]([O-])CC2)O[C@@H]2O[C@@]3(C)CC[C@H]4[C@H](C)CC[C@@H]1[C@@]24OO3 [Artemisox 6, Artemisox]
- Mean iv circulating concentration ([1]; 7 h after iv 5 mg/kg artemisox 6): blq
- Mean iv circulating concentration ([1]; 24 h after iv 5 mg/kg artemisox 6): blq
- Mean po circulating concentration ([1]; 24 h after po 50 mg/kg artemiside 5): blq
- Mean po circulating concentration ([1]; 24 h after po 50 mg/kg artemisox 6): blq
- quantifiable/detectable in plasma up to ([1]; iv group, parent drug, LLOQ 1.6 ng/mL or 0.004 μM for artemiside): up to 5 h
- concentration at 0.08 h ([1]; male, C57/BL6, mouse, plasma, iv, 5 mg/kg, 0.08 h after iv 5 mg/kg artemiside 5, read-out: Mean iv circulating concentration): 1930 nM
- concentration at 0.08 h ([1]; male, C57/BL6, mouse, plasma, iv, 5 mg/kg, 0.08 h after iv 5 mg/kg artemisox 6, read-out: Mean iv circulating concentration): 1900 nM
- concentration at 0.25 h ([1]; male, C57/BL6, mouse, plasma, iv, 5 mg/kg, 0.25 h after iv 5 mg/kg artemiside 5, read-out: Mean iv circulating concentration): 1820 nM
- concentration at 0.25 h ([1]; male, C57/BL6, mouse, plasma, iv, 5 mg/kg, 0.25 h after iv 5 mg/kg artemisox 6, read-out: Mean iv circulating concentration): 2420 nM
- concentration at 0.5 h ([1]; male, C57/BL6, mouse, plasma, iv, 5 mg/kg, 0.5 h after iv 5 mg/kg artemiside 5, read-out: Mean iv circulating concentration): 1380 nM
- concentration at 0.5 h ([1]; male, C57/BL6, mouse, plasma, iv, 5 mg/kg, 0.5 h after iv 5 mg/kg artemisox 6, read-out: Mean iv circulating concentration): 1920 nM
- concentration at 1 h ([1]; male, C57/BL6, mouse, plasma, iv, 5 mg/kg, 1 h after iv 5 mg/kg artemiside 5, read-out: Mean iv circulating concentration): 674 nM
- concentration at 1 h ([1]; male, C57/BL6, mouse, plasma, iv, 5 mg/kg, 1 h after iv 5 mg/kg artemisox 6, read-out: Mean iv circulating concentration): 663 nM
- concentration at 3 h ([1]; male, C57/BL6, mouse, plasma, iv, 5 mg/kg, 3 h after iv 5 mg/kg artemiside 5, read-out: Mean iv circulating concentration): 66 nM
- concentration at 3 h ([1]; male, C57/BL6, mouse, plasma, iv, 5 mg/kg, 3 h after iv 5 mg/kg artemisox 6, read-out: Mean iv circulating concentration): 7 nM
- concentration at 5 h ([1]; male, C57/BL6, mouse, plasma, iv, 5 mg/kg, 5 h after iv 5 mg/kg artemiside 5, read-out: Mean iv circulating concentration): 20 nM
- concentration at 5 h ([1]; male, C57/BL6, mouse, plasma, iv, 5 mg/kg, 5 h after iv 5 mg/kg artemisox 6, read-out: Mean iv circulating concentration): 7 nM
- concentration at 7 h ([1]; male, C57/BL6, mouse, plasma, iv, 5 mg/kg, 7 h after iv 5 mg/kg artemiside 5, read-out: Mean iv circulating concentration): 11 nM
- concentration at 24 h ([1]; male, C57/BL6, mouse, plasma, iv, 5 mg/kg, 24 h after iv 5 mg/kg artemiside 5, read-out: Mean iv circulating concentration): 5 nM
- half-life ([1]; male, C57/BL6, mouse, plasma, iv, 5 mg/kg, iv 5 mg/kg, parent drug): 25.8 ± 7.2 min
- concentration at 0.08 h ([1]; male, C57/BL6, mouse, plasma, po, 50 mg/kg, 0.08 h after po 50 mg/kg artemiside 5, read-out: Mean po circulating concentration): 1860 nM
- concentration at 0.08 h ([1]; male, C57/BL6, mouse, plasma, po, 50 mg/kg, 0.08 h after po 50 mg/kg artemisox 6, read-out: Mean po circulating concentration): 3040 nM
- concentration at 0.25 h ([1]; male, C57/BL6, mouse, plasma, po, 50 mg/kg, 0.25 h after po 50 mg/kg artemiside 5, read-out: Mean po circulating concentration): 2150 nM
- concentration at 0.25 h ([1]; male, C57/BL6, mouse, plasma, po, 50 mg/kg, 0.25 h after po 50 mg/kg artemisox 6, read-out: Mean po circulating concentration): 4210 nM
- concentration at 0.5 h ([1]; male, C57/BL6, mouse, plasma, po, 50 mg/kg, 0.5 h after po 50 mg/kg artemiside 5, read-out: Mean po circulating concentration): 2510 nM
- concentration at 0.5 h ([1]; male, C57/BL6, mouse, plasma, po, 50 mg/kg, 0.5 h after po 50 mg/kg artemisox 6, read-out: Mean po circulating concentration): 2150 nM
- concentration at 1 h ([1]; male, C57/BL6, mouse, plasma, po, 50 mg/kg, 1 h after po 50 mg/kg artemiside 5, read-out: Mean po circulating concentration): 2030 nM
- concentration at 1 h ([1]; male, C57/BL6, mouse, plasma, po, 50 mg/kg, 1 h after po 50 mg/kg artemisox 6, read-out: Mean po circulating concentration): 2010 nM
- concentration at 3 h ([1]; male, C57/BL6, mouse, plasma, po, 50 mg/kg, 3 h after po 50 mg/kg artemiside 5, read-out: Mean po circulating concentration): 286 nM
- concentration at 3 h ([1]; male, C57/BL6, mouse, plasma, po, 50 mg/kg, 3 h after po 50 mg/kg artemisox 6, read-out: Mean po circulating concentration): 13 nM
- concentration at 5 h ([1]; male, C57/BL6, mouse, plasma, po, 50 mg/kg, 5 h after po 50 mg/kg artemiside 5, read-out: Mean po circulating concentration): 7 nM
- concentration at 5 h ([1]; male, C57/BL6, mouse, plasma, po, 50 mg/kg, 5 h after po 50 mg/kg artemisox 6, read-out: Mean po circulating concentration): 5 nM
- concentration at 7 h ([1]; male, C57/BL6, mouse, plasma, po, 50 mg/kg, 7 h after po 50 mg/kg artemiside 5, read-out: Mean po circulating concentration): 5 nM
- concentration at 7 h ([1]; male, C57/BL6, mouse, plasma, po, 50 mg/kg, 7 h after po 50 mg/kg artemisox 6, read-out: Mean po circulating concentration): 4 nM
- half-life ([1]; male, C57/BL6, mouse, plasma, po, 50 mg/kg, po 50 mg/kg, parent drug): 32.4 ± 6 min
- clearance ([1]; male, C57/BL6, mouse, plasma, iv 5 mg/kg): 115 mL/min/kg
- AUC(0-inf) [1, 3]: 2 ± 0.7 µM·h
- MRT last ([1]; male, C57/BL6, mouse, plasma, iv 5 mg/kg, parent drug, 0-last up to 7 h): 34.2 ± 2.4 min
- AUC(0-t) [1, 3]: 2 ± 0.7 µM·h
- Vd ([1]; male, C57/BL6, mouse, plasma, iv 5 mg/kg, read-out: Vss): 4 ± 1.2 L/kg
- bioavailability ([1]; male, C57/BL6, mouse, plasma, po 50 mg/kg vs iv 5 mg/kg, read-out: F (bioavailability)): 16 ± 2%
- Cmax [1, 4]: 4500 ± 2300 nM
- MRT last [1, 4]: 41.4 ± 5.4 min
- AUC(0-t) [1, 4]: 3.3 ± 1.4 µM·h
- MAT (mean absorption time = MRTpo–MRTiv) ([1]; po 50 mg/kg): 7.8 ± 4.2 min
- quantifiable/detectable in plasma up to ([1]; po group, parent drug): up to 7 h
- IC50 at 24 h [2]: > 50 µM
